Results on nine compounds are retold here after patent US20080026943A1, “Phenyl-Substituted [1,2]-Oxazine-3,5-Dione and Dihydropyrone Derivatives” (priority 2004, published 2008).

Marks after values point to notes of the source that are not given here.

In data set [1] the test system is Pyricularia oryzae. It is filed as cell-based. To be noted: tested at 0.1, 1, 10 and 100 ppm, 20° C., 3 to 5 days, photometric at 620 nm.
The subject of data set [2] is Echinochloa. Briefly: Post-emergence herbicidal effect, greenhouse. The class given is in vivo. The settings on record: 320 g a.i./ha, scored after about 3 weeks. The protocol:
(§1) Seeds of mono- and dicotyledonous weed and crop plants are placed in sandy loam soil in wood fibre pots, covered with soil and cultivated in a greenhouse under good growth conditions. 2-3 weeks after sowing, the trial plants are treated at the one-leaf stage. The test compounds, formulated as wettable powders (WP), are sprayed at various dosages with a water application rate of 600 l/ha (converted) and with addition of 0.2% wetting agent to the green parts of the plants. After the trial plants have stood in the greenhouse for about 3 weeks under optimum growth conditions, the effect of the products is scored visually in comparison to untreated controls (herbicidal effect in percent (%): 100% effect=plants have died, 0% effect=like control plants).

The test system of data set [3] is Setaria. The data set is described as follows: Post-emergence herbicidal effect, greenhouse. To be noted: 320 g a.i./ha, scored after about 3 weeks. It is filed as in vivo. The protocol: as §1
Data set [4] has as its system Lolium. Briefly: Post-emergence herbicidal effect, greenhouse. The class given is in vivo. The settings on record: 320 g a.i./ha, scored after about 3 weeks. Here is the method: as §1
The subject of data set [5] is Setaria. Briefly: Pre-emergence herbicidal effect, greenhouse. The class given is in vivo. The settings on record: scored after 3 weeks. An excerpt:
(§2) Seeds of mono- and dicotyledonous weed and crop plants are placed in sandy loam soil in wood fibre pots and covered with soil. The test compounds, formulated as wettable powders (WP), are then applied as an aqueous suspension with a water application rate of 600 l/ha (converted) and with addition of 0.2% wetting agent, in different dosages to the surface of the covering soil. After the treatment, the pots are placed in a greenhouse and maintained under optimum growth conditions for the test plants. The visual scoring of the emergence damage on the trial plants is carried out after a trial time of 3 weeks in comparison to untreated controls (herbicidal effect in percent (%): 100% effect=plants have died, 0% effect=like control plants).

Data set [6] relates to Lolium. The data set is described as follows: Pre-emergence herbicidal effect, greenhouse. The class given is in vivo. To be noted: scored after 3 weeks.
From the text: as §2

A short description of data set [7]: logP by HPLC on a reversed-phase column (C18), EEC Directive 79/831 Annex V.A8. It is filed as physicochemical. To be noted: reversed-phase C18, 43° C., pH variant not stated for these values. An excerpt: [table] The determination is made in the acidic range at a pH of 2.3 using 0.1% aqueous phosphoric acid and acetonitrile as eluents; linear gradient from 10% acetonitrile to 95% acetonitrile. The determination with LC-MS in the acidic range is made at a pH of 2.7 with 0.1% aqueous formic acid and acetonitrile (containing 0.1% formic acid) as eluents; linear gradient from 10% acetonitrile to 95% acetonitrile. The determination with LC-MS in the neutral range is made at a pH of 7.8 with 0.001 molar aqueous ammonium hydrogen carbonate solution and acetonitrile as eluents; linear gradient from 10% acetonitrile to 95% acetonitrile. Calibration is carried out with unbranched alkan-2-ones (having 3 to 16 carbon atoms), for which the logP values are known (logP values determined on the basis of the retention times by means of linear interpolation between two successive alkanones).

Data set [8] has as its system green peach aphid (Myzus persicae). Briefly: Myzus persicae test (MYZUPE), leaf immersion. The class given is in vivo. To be noted: 500 ppm; cabbage leaves immersed. The protocol:
[table] A suitable preparation of active compound is prepared by mixing 1 part by weight of active compound with the stated amounts of solvent and emulsifier and diluting the concentrate with emulsifier-containing water to the desired concentration. Leaves of cabbage (Brassica oleracea) heavily infested by the green peach aphid (Myzus persicae) are treated by being immersed in the preparation of active compound at the desired concentration. After the desired time, the kill rate in % is determined. 100% means that all of the aphids have been killed; 0% means that no aphids have been killed.

The subject of data set [9] is Botrytis cinerea. Briefly: Botrytis test (bean)/protective. The settings on record: protective, 500 g/ha, two days after inoculation. The class given is in vivo. Here is the method:
A suitable preparation of active compound is prepared by mixing 1 part by weight of active compound with the stated amounts of solvent and emulsifier and diluting the concentrate with water to the desired concentration.
To test for protective activity, young plants are sprayed with the preparation of active compound at the stated application rate. After the spray coating has dried on, two small pieces of agar colonized by Botrytis cinerea are placed on each leaf. The inoculated plants are placed in a darkened chamber at about 20° C. and 100% humidity.
Two days after inoculation, the size of the infestation spots on the leaves is evaluated. 0% denotes an efficacy corresponding to that of the control, while an efficacy of 100% denotes a total absence of observed infestation.

Data set [10] relates to Sugarbeets. The data set is described as follows: Post-emergence herbicidal effect, greenhouse. It is filed as in vivo. To be noted: 320 g a.i./ha, scored after about 3 weeks. Here is the method:
as §1

The test system of data set [11] is Sorghum. Briefly: Post-emergence herbicidal effect, greenhouse. The class given is in vivo. The settings on record: 320 g a.i./ha, scored after about 3 weeks. The protocol:
as §1

In data set [12] the test system is Digitaria. Briefly: Post-emergence herbicidal effect, greenhouse. It is filed as in vivo. The settings on record: 320 g a.i./ha, scored after about 3 weeks. The protocol: as §1
The test system of data set [13] is Echinochloa. The data set is described as follows: Pre-emergence herbicidal effect, greenhouse. The class given is in vivo. To be noted: 1000 g a.i./ha, scored after 3 weeks.
From the text: as §2

Data set [14] deals with Plasmopara viticola. The data set is described as follows: Plasmopara test (grapevine)/protective. The class given is in vivo. The settings on record: protective, 100 g/ha, 6 days after inoculation. Here is the method: (§3) [table] A suitable preparation of active compound is prepared by mixing 1 part by weight of active compound with the stated amounts of solvent and emulsifier and diluting the concentrate with water to the desired concentration. To test for protective activity, young plants are sprayed with the preparation of active compound at the stated application rate. After the spray coating has dried on, the plants are inoculated with an aqueous spore suspension of Plasmopara viticola and then spend 1 day in an incubation cabin at about 20° C. and 100% relative humidity. Thereafter the plants are placed in a greenhouse for 4 days at about 21° C. and about 90% humidity. The plants are then moistened and placed in an incubation cabin for 1 day.

Data set [15] concerns Venturia inaequalis. The data set is described as follows: Venturia test (apple)/protective. It is filed as in vivo. The settings on record: protective, 100 g/ha, 10 days after inoculation. Here is the method:
as §3, with “conidia” for “spore”, “the causative organism of apple scab, Venturia inaequalis,” for “Plasmopara viticola”, “greenhouse” for “greenhouse for 4 days”, “90% relative” for “90%”, “humidity.” for “humidity. The plants are then moistened and placed in an incubation cabin for 1 day.”

For data set [16], the system named is Sinapis. Briefly: Post-emergence herbicidal effect, greenhouse. The class given is in vivo. The settings on record: 320 g a.i./ha, scored after about 3 weeks. The protocol: as §1

In the case of `Cc1ccc(C2(Cl)C(=O)N(C)OC(C)(C)C2=O)c(Cl)c1` (stereo not shown) [Example I-1-1], the “ED50 (dose leading to 50% inhibition of fungal growth)” value in data set [1] is under 0.1 ppm.
On to `CCc1cc(Cl)cc(Cl)c1C1(Cl)C(=O)N(C)OC(C)(C)C1=O` (stereo not shown) [Example I-1-7], for which the “herbicidal effect in percent, Echinochloa” value in data set [2] is on record as 90%. The results for the “herbicidal effect in percent, Setaria” value in data set [3] and in data set [5] (320 g a.i./ha) were 90% and 100%, respectively. Further, the “herbicidal effect in percent, Lolium” value is reported as 90% in data set [4] and 100% in data set [6] (320 g a.i./ha).
Regarding `CCc1cc(Br)ccc1C1(Cl)C(=O)N(C)OC(C)(C)C1=O` (stereo not shown) [Example I-1-10], the “herbicidal effect in percent, Echinochloa” value in [2] was found to be 90%. Further, in [3], the “herbicidal effect in percent, Setaria” value is recorded as 80%. In data set [4], the “herbicidal effect in percent, Lolium” value was 90%.
Take `CN1OC(C)(C)C(=O)C(Cl)(c2cc(-c3ccc(Cl)cc3)ccc2Cl)C1=O` (stereo not shown) [Example I-1-11]: the “log P” value in data set [7] was “log P 4.58*”.
Same read-out and setting: for `Cc1ccc(-c2ccc(C(F)(F)F)cc2)cc1C1(Cl)C(=O)N(C)OC(C)(C)C1=O` (stereo not shown) [Example I-1-12] the value was “log P 4.56*”.
Turning to `CC1(C)OC(=O)C(Cl)(c2cc(-c3ccc(Cl)cc3)ccc2Cl)C(=O)C1(C)C` (stereo not shown) [Example I-2-1], the “ED50 (dose leading to 50% inhibition of fungal growth)” value in [1] came out at 0.48 ppm. In addition, in data set [8], the “activity (kill rate in %)” value was at least 80%.
Consider `Cc1ccc(-c2ccc(Cl)cc2)cc1C1(Cl)C(=O)OC2CCCCC2(C)C1=O` (stereo not shown) [Example I-2-2], for which, in data set [1], the “ED50 (dose leading to 50% inhibition of fungal growth)” value amounted to 0.12 ppm. The Efficacy in % in data set [9] is given as 93%; in [14], 100%; in [15], 99%. The “herbicidal effect in percent, Echinochloa” value in data set [2] and in data set [13] was 100% in each case. For the same compound, the “herbicidal effect in percent, Sugarbeets” value in data set [10] stood at 0%. Moreover, in data set [11], the “herbicidal effect in percent, Sorghum” value was 80%. For the same compound, the “herbicidal effect in percent, Digitaria” value in data set [12] is recorded as 100%. In addition, the “herbicidal effect in percent, Setaria” value in data set [3] and in data set [5] (1000 g a.i./ha) was 100% throughout. In addition, the “herbicidal effect in percent, Lolium” value in data set [4] and in [6] (1000 g a.i./ha) was 80% in each case.
As to `CC1(C)OC(=O)C(Cl)(c2cc(-c3ccc(Cl)cc3Cl)ccc2Cl)C(=O)C1(C)C` (stereo not shown) [Example I-2-6], in data set [2], the “herbicidal effect in percent, Echinochloa” value came out at 90%. Besides, in data set [3], the “herbicidal effect in percent, Setaria” value was 90%. For the same compound, the “herbicidal effect in percent, Lolium” value in data set [4] stood at 70%. Moreover, the “herbicidal effect in percent, Sinapis” value in [16] was determined as 40%.
Turning to `Cc1ccc(-c2ccc(Cl)cc2)cc1C1(Cl)C(=O)OC(C)(C)C(C)(C)C1=O` (stereo not shown) [Example I-2-10], the “herbicidal effect in percent, Echinochloa” value in data set [2] turned out to be 70%. For the same compound, in [3], the “herbicidal effect in percent, Setaria” value was 90%. For the same compound, in data set [4], the “herbicidal effect in percent, Lolium” value is 70%. In addition, the “herbicidal effect in percent, Sinapis” value in data set [16] was determined as 80%.
